Patent US8232271B2 (priority 2008, dated 2012)

Key:
[1] = target: T1, HCV polymerase (NS5B570n-Con1) (Hepatitis C virus genotype 1b, UniProt Q9WMX2); experiment: HCV NS5B RNA polymerase activity assay; type: biochemical, HCV Con1 strain
T1 construct: contains a 21 amino acid deletion at the C-terminus relative to the full-length HCV polymerase; 6-histidine (N); made in house; host or cells: E. coli BL21(DE) pLysS, plasmid pET17b
Experimental: The enzymatic activity of HCV polymerase (NS5B570n-Con1) was measured as the incorporation of radiolabeled nucleotide monophosphates into acid insoluble RNA products. Unincorporated radiolabeled substrate was removed by filtration and scintillant was added to the washed and dried filter plate containing radiolabeled RNA product. The amount of RNA product generated by NS5B570-Con1 at the end of the reaction was directly proportional to the amount of light emitted by the scintillant.
The N-terminal 6-histidine tagged HCV polymerase, derived from HCV Con1 strain, genotype 1b (NS5B570n-Con1) contains a 21 amino acid deletion at the C-terminus relative to the full-length HCV polymerase and was purified from E. coli strain BL21(DE) pLysS. The construct, containing the coding sequence of HCV NS5B Con1 (GenBank accession number AJ242654) was inserted into the plasmid construct pET17b, downstream of a T7 promoter expression cassette and transformed into E. coli. A single colony was grown overnight as a starter culture and later used inoculate 10 L of LB media supplemented with 100 μg/mL ampicillin at 37° C. Protein expression was induced by the addition of 0.25 mM isopropyl-β-D-thiogalactopyranoside (IPTG) when optical density at […] of the culture was between 0.6 and 0.8 and cells were harvested after 16 to 18 h at 30° C. NS5B570n-Con1 was purified to homogeneity using a three-step protocol including subsequent column chromatography on Ni-NTA, SP-Sepharose HP and Superdex 75 resins.
Each 50 μl enzymatic reaction contained 20 nM RNA template derived from the complementary sequence of the Internal Ribosome Entry Site (cIRES), 20 nM NS5B570n-Con1 enzyme, 0.5 μCi of tritiated UTP (Perkin Elmer catalog no. TRK-412; specific activity: 30 to 60 Ci/mmol; stock solution concentration from 7.5×10^-5 M to 20.6×10^-6 M), 1 μM each ATP, CTP, and GTP, 40 mM Tris-HCl pH 8.0, 40 mM NaCl, 4 mM DTT (dithiothreitol), 4 mM MgCl2, and 5 μl of compound serial diluted in DMSO. Reaction mixtures were assembled in 96-well filter plates (cat #MADVN0B, Millipore Co.) and incubated for 2 h at 30° C. Reactions were stopped by addition of 10% final (v/v) trichloroacetic acid and incubated for 40 min at 4° C. Reactions were filtered, washed with 8 reaction volumes of 10% (v/v) trichloroacetic acetic acid, 4 reaction volumes of 70% (v/v) ethanol, air dried, and 25 μl of scintillant (Microscint 20, Perkin-Elmer) was added to each reaction well.
The amount of light emitted from the scintillant was converted to counts per minute (CPM) on a Topcount® plate reader (Perkin-Elmer, Energy Range: Low, Efficiency Mode: Normal, Count Time: 1 min, Background Subtract: none, Cross talk reduction: Off).
Data was analyzed in Excel® (Microsoft®) and ActivityBase® (Idbs®). The reaction in the absence of enzyme was used to determine the background signal, which was subtracted from the enzymatic reactions. Positive control reactions were performed in the absence of compound, from which the background corrected activity was set as 100% polymerase activity. All data was expressed as a percentage of the positive control. The compound concentration at which the enzyme-catalyzed rate of RNA synthesis was reduced by 50% (IC50) was calculated by fitting
[formula] equation (i) to the data. where “Y” corresponds to the relative enzyme activity (in %), “% Min” is the residual relative activity at saturating compound concentration, “% Max” is the relative maximum enzymatic activity, “X” corresponds to the compound concentration, and “S” is the Hill coefficient (or slope).

[2] = test system: HCV replicon cells (2209-23); experiment: HCV replicon assay (Renilla luciferase reporter); type: cell-based, HCV genotype 1b; settings: Hepatitis C virus, 72 h; three days incubation
[3] = in vitro; settings: human
[4] = test system: HCV; settings: monotherapy; cited from earlier work

Structure (SMILES)	IC50 [1] [nM]	IC50 [2] [nM]	melting point [°C]	CC50 [3] [nM]	effect on serum levels of HCV-RNA [4]	patients with serum amino transferase levels reduced to normal [4] [%]
COc1cc(CNC(=O)[C@H]2CC[C@H](NS(C)(=O)=O)C2)c(-c2ccc[nH]c2=O)cc1C(C)(C)C [Compound I-81, (1S,3S)-3-Methanesulfonylamino-cyclopentanecarboxylic acid 4-tert-butyl-5-methoxy-2-(2-oxo-1,2-dihydro-pyridin-3-yl)-benzylamide]	22	238	158 to 160			
COc1cc(CNC(=O)c2cccc(NS(C)(=O)=O)c2)c(-c2ccc[nH]c2=O)cc1C(C)(C)C [Compound I-63]	12	34	259 to 260	43700		
COc1cc(CNC(=O)c2ccc(O)cc2)c(-c2ccc[nH]c2=O)cc1C(C)(C)C [Compound I-38, N-[4-tert-Butyl-5-methoxy-2-(2-oxo-1,2-dihydro-pyridin-3-yl)-benzyl]-4-hydroxy-benzamide]	16	310	205 to 210	92900		
NC(=O)c1ncn([C@@H]2O[C@H](CO)[C@@H](O)[C@H]2O)n1 [ribavirin, 1-((2R,3R,4S,5R)-3,4-Dihydroxy-5-hydroxymethyl-tetrahydro-furan-2-yl)-1H-[1,2,4]triazole-3-carboxylic acid amide]					does not lower serum levels of HCV-RNA	40
COc1cc(CCO)c(-c2ccc[nH]c2=O)cc1C(C)(C)C [Compound I-5, 3-[5-tert-Butyl-2-(2-hydroxy-ethyl)-4-methoxy-phenyl]-1H-pyridin-2-one]	1580		231.8 to 233.7			
COc1cc(CNS(=O)(=O)c2ccccc2Cl)c(-c2ccc[nH]c2=O)cc1C(C)(C)C [Compound I-87]	358		231 to 232			
COc1cc(CNC(=O)c2ccc(NS(C)(=O)=O)cc2)c(-c2ccc[nH]c2=O)cc1C(C)(C)C [Compound I-43, N-[4-tert-butyl-5-methoxy-2-(2-oxo-1,2-dihydro-pyridin-3-yl)-benzyl]-4-methanesulfonylamino-benzamide]	50		175 to 180			
COc1cc(CN(CC2CCNC2)S(C)(=O)=O)c(-c2ccc[nH]c2=O)cc1C(C)(C)C (stereo not drawn) [Compound I-31, N-[4-tert-Butyl-5-methoxy-2-(2-oxo-1,2-dihydro-pyridin-3-yl)-benzyl]-N-pyrrolidin-3-ylmethyl-methanesulfonamide]	97		158 to 160			
COc1cc(CN(C)C(=O)c2ccccc2)c(-c2ccc[nH]c2=O)cc1C(C)(C)C [Compound I-22]	25		236.2 to 238			
COc1cc(CN(Cc2ccccc2)S(C)(=O)=O)c(-c2ccc[nH]c2=O)cc1C(C)(C)C [Compound I-26]	145		229 to 230			
COc1cc(C(=O)N2CCC(F)(F)CC2)c(-c2ccc[nH]c2=O)cc1C(C)(C)C [Compound I-62]	955		223 to 224			
COc1cc(CN(C2CCNCC2)S(C)(=O)=O)c(-c2ccc[nH]c2=O)cc1C(C)(C)C [Compound I-57]	57		205 to 208			
COc1cc(CN(c2ccccc2)S(C)(=O)=O)c(-c2ccc[nH]c2=O)cc1C(C)(C)C [Compound I-34]	13	936	226 to 227	44200		
COc1cc(CO)c(-c2ccc[nH]c2=O)cc1C(C)(C)C [Compound I-2, 3-(5-tert-Butyl-2-hydroxymethyl-4-methoxy-phenyl)-1H-pyridin-2-one]	1010		215 to 216			
COc1cc(CN2CCCS2(=O)=O)c(-c2ccc[nH]c2=O)cc1C(C)(C)C [Compound I-21, 3-[5-tert-Butyl-2-(1,1-dioxo-1λ^6-isothiazolidin-2-ylmethyl)-4-methoxy-phenyl]-1H-pyridin-2-one]	17	168	109.4 to 126.9			
COc1cc(C(=O)N2CC(O)C2)c(-c2ccc[nH]c2=O)cc1C(C)(C)C [Compound I-68]	211		236 to 238			
COc1cc(CN(CCOC(C)=O)S(C)(=O)=O)c(-c2ccc[nH]c2=O)cc1C(C)(C)C [Compound I-30, 2-{[4-tert-Butyl-5-methoxy-2-(2-oxo-1,2-dihydro-pyridin-3-yl)-benzyl]-methanesulfonyl-amino}-ethyl acetate]	35		207 to 208			
